Reference: the supplement of paper PMC10307832

How the values were obtained:
Assay in all cases: relative viability (nuclei count vs DMSO), 5 days (fraction); higher = more cells survive
NCI-H650 = tested on: NCI-H650
In short: (§1)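 Lung cancer cell lines in 1536-well plates were dosed by pin tool the day after seeding, either with one drug alone or with a fixed anchor-drug dose plus five library-drug doses (not always all listed) in √10 steps. After 5 days, cells were fixed and their nuclei stained in one step (final 0.05% Triton X-100, 1% formaldehyde, 1 ug/ml Hoechst), then counted on 4× images. Relative viability is the nuclei count in treated wells divided by that in vehicle wells. Values are medians of duplicate plates.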

NCI-H23 = tested on: NCI-H23
In short: as §1

LOU-NH91 = tested on: LOU-NH91
In short: as §1

NCI-H838 = tested on: NCI-H838
In short: as §1

NCI-H1395 = tested on: NCI-H1395
In short: as §1

NCI-H2009 = tested on: NCI-H2009
In short: as §1

NCI-H1666 = tested on: NCI-H1666
In short: as §1

NCI-H727 = tested on: NCI-H727
In short: as §1

NCI-H596 = tested on: NCI-H596
In short: as §1

HARA = tested on: HARA
In short: as §1

NCI-H441 = tested on: NCI-H441
In short: as §1

LCLC-103H = tested on: LCLC-103H
In short: as §1

NCI-H2126 = tested on: NCI-H2126
In short: as §1

EMC-BAC-2 = tested on: EMC-BAC-2
In short: as §1

NCI-H2023 = tested on: NCI-H2023
In short: as §1

NCI-H1993 = tested on: NCI-H1993
In short: as §1

NCI-H3122 = tested on: NCI-H3122
In short: as §1

NCI-H647 = tested on: NCI-H647
In short: as §1

HCC-44 = tested on: HCC-44
In short: as §1

201T = tested on: 201T
In short: as §1

NCI-H2347 = tested on: NCI-H2347
In short: as §1

NCI-H2087 = tested on: NCI-H2087
In short: as §1

BEN = tested on: BEN
In short: as §1

CC1(C)CCC(c2ccc(Cl)cc2)=C(CN2CCN(c3ccc(C(=O)NS(=O)(=O)c4ccc(N[C@H](CCN5CCOCC5)CSc5ccccc5)c(S(=O)(=O)C(F)(F)F)c4)cc3)CC2)C1 [Navitoclax] + COc1cccc2cc(-c3nc([C@H]4CC[C@H](C(=O)O)CC4)n4ncnc(N)c34)[nH]c12 [OSI-027] (partner 0.5 µM)
relative viability (NCI-H650; first compound 0.005 µM): 0.525
relative viability (NCI-H650; first compound 0.01581 µM): 0.569
relative viability (NCI-H650; first compound 0.05 µM): 0.525
relative viability (NCI-H650; first compound 0.1581 µM): 0.498
relative viability (NCI-H650; first compound 0.5 µM): 0.547
relative viability (NCI-H23; first compound 0.005 µM): 0.704
relative viability (NCI-H23; first compound 0.01581 µM): 0.691
relative viability (NCI-H23; first compound 0.05 µM): 0.529
relative viability (NCI-H23; first compound 0.1581 µM): 0.582
relative viability (NCI-H23; first compound 0.5 µM): 0.63
relative viability (LOU-NH91; first compound 0.005 µM): 0.775
relative viability (LOU-NH91; first compound 0.01581 µM): 0.76
relative viability (LOU-NH91; first compound 0.05 µM): 0.699
relative viability (LOU-NH91; first compound 0.1581 µM): 0.755
relative viability (LOU-NH91; first compound 0.5 µM): 0.661
relative viability (NCI-H838; first compound 0.005 µM): 0.373
relative viability (NCI-H838; first compound 0.01581 µM): 0.434
relative viability (NCI-H838; first compound 0.05 µM): 0.495
relative viability (NCI-H838; first compound 0.1581 µM): 0.349
relative viability (NCI-H838; first compound 0.5 µM): 0.41
relative viability (NCI-H1395; first compound 0.005 µM): 0.591
relative viability (NCI-H1395; first compound 0.01581 µM): 0.77
relative viability (NCI-H1395; first compound 0.05 µM): 0.601
relative viability (NCI-H1395; first compound 0.1581 µM): 0.569
relative viability (NCI-H1395; first compound 0.5 µM): 0.754
relative viability (NCI-H2009; first compound 0.005 µM): 0.598
relative viability (NCI-H2009; first compound 0.01581 µM): 0.792
relative viability (NCI-H2009; first compound 0.05 µM): 0.576
relative viability (NCI-H2009; first compound 0.1581 µM): 0.643
relative viability (NCI-H2009; first compound 0.5 µM): 0.735
relative viability (NCI-H1666; first compound 0.005 µM): 0.823
relative viability (NCI-H1666; first compound 0.01581 µM): 0.815
relative viability (NCI-H1666; first compound 0.05 µM): 0.859
relative viability (NCI-H1666; first compound 0.1581 µM): 0.758
relative viability (NCI-H1666; first compound 0.5 µM): 0.839
relative viability (NCI-H727; first compound 0.005 µM): 0.675
relative viability (NCI-H727; first compound 0.01581 µM): 0.692
relative viability (NCI-H727; first compound 0.1581 µM): 0.663
relative viability (NCI-H727; first compound 0.5 µM): 0.728
relative viability (NCI-H596; first compound 0.005 µM): 0.765
relative viability (NCI-H596; first compound 0.01581 µM): 0.684
relative viability (NCI-H596; first compound 0.1581 µM): 0.953
relative viability (NCI-H596; first compound 0.5 µM): 0.8
relative viability (HARA; first compound 0.005 µM): 0.538
relative viability (HARA; first compound 0.01581 µM): 0.684
relative viability (HARA; first compound 0.1581 µM): 0.66
relative viability (HARA; first compound 0.5 µM): 0.459
relative viability (NCI-H441; first compound 0.005 µM): 0.732
relative viability (NCI-H441; first compound 0.01581 µM): 0.635
relative viability (NCI-H441; first compound 0.05 µM): 0.58
relative viability (NCI-H441; first compound 0.1581 µM): 0.56
relative viability (NCI-H441; first compound 0.5 µM): 0.849
relative viability (LCLC-103H; first compound 0.005 µM): 0.462
relative viability (LCLC-103H; first compound 0.01581 µM): 0.449
relative viability (LCLC-103H; first compound 0.05 µM): 0.399
relative viability (LCLC-103H; first compound 0.1581 µM): 0.479
relative viability (LCLC-103H; first compound 0.5 µM): 0.533
relative viability (NCI-H2126; first compound 0.005 µM): 0.764
relative viability (NCI-H2126; first compound 0.01581 µM): 0.849
relative viability (NCI-H2126; first compound 0.1581 µM): 0.72
relative viability (NCI-H2126; first compound 0.5 µM): 0.716
relative viability (EMC-BAC-2; first compound 0.005 µM): 0.392
relative viability (EMC-BAC-2; first compound 0.01581 µM): 0.362
relative viability (EMC-BAC-2; first compound 0.05 µM): 0.382
relative viability (EMC-BAC-2; first compound 0.1581 µM): 0.351
relative viability (EMC-BAC-2; first compound 0.5 µM): 0.372
relative viability (NCI-H2023; first compound 0.005 µM): 0.405
relative viability (NCI-H2023; first compound 0.01581 µM): 0.446
relative viability (NCI-H2023; first compound 0.05 µM): 0.338
relative viability (NCI-H2023; first compound 0.1581 µM): 0.38
relative viability (NCI-H2023; first compound 0.5 µM): 0.416
relative viability (NCI-H1993; first compound 0.005 µM): 0.566
relative viability (NCI-H1993; first compound 0.01581 µM): 0.523
relative viability (NCI-H1993; first compound 0.05 µM): 0.551
relative viability (NCI-H1993; first compound 0.1581 µM): 0.523
relative viability (NCI-H1993; first compound 0.5 µM): 0.607
relative viability (NCI-H3122; first compound 0.005 µM): 0.98
relative viability (NCI-H3122; first compound 0.01581 µM): 0.949
relative viability (NCI-H3122; first compound 0.05 µM): 1.04
relative viability (NCI-H3122; first compound 0.1581 µM): 0.902
relative viability (NCI-H3122; first compound 0.5 µM): 0.978
relative viability (NCI-H647; first compound 0.005 µM): 0.674
relative viability (NCI-H647; first compound 0.01581 µM): 0.738
relative viability (NCI-H647; first compound 0.05 µM): 0.891
relative viability (NCI-H647; first compound 0.1581 µM): 0.611
relative viability (NCI-H647; first compound 0.5 µM): 0.597
relative viability (HCC-44; first compound 0.05 µM): 0.627
relative viability (HCC-44; first compound 0.5 µM): 0.404
relative viability (201T; first compound 0.005 µM): 0.73
relative viability (201T; first compound 0.01581 µM): 0.805
relative viability (201T; first compound 0.05 µM): 0.392
relative viability (201T; first compound 0.1581 µM): 0.707
relative viability (201T; first compound 0.5 µM): 0.647
relative viability (NCI-H2347; first compound 0.005 µM): 0.485
relative viability (NCI-H2347; first compound 0.01581 µM): 0.451
relative viability (NCI-H2347; first compound 0.1581 µM): 0.293
relative viability (NCI-H2347; first compound 0.5 µM): 0.401
relative viability (NCI-H2087; first compound 0.005 µM): 0.47
relative viability (NCI-H2087; first compound 0.01581 µM): 0.679
relative viability (NCI-H2087; first compound 0.1581 µM): 0.537
relative viability (NCI-H2087; first compound 0.5 µM): 0.794
relative viability (BEN; first compound 0.005 µM): 0.286
relative viability (BEN; first compound 0.01581 µM): 0.308
relative viability (BEN; first compound 0.05 µM): 0.333
relative viability (BEN; first compound 0.1581 µM): 0.308
relative viability (BEN; first compound 0.5 µM): 0.281
